Row | SMILES | melting point [°C]
1 | Cc1ccc2c(c1C#N)[C@H](C)[C@H](C)N=C2c1cnc2c(F)cccc2c1 (racemic) | 164 to 166
2 | C[C@@H]1N=C(c2cnc3c(F)cccc3c2)c2cccc(Br)c2[C@H]1C (racemic) [E.12, rac-(3S,4R)-5-bromo-1-(8-fluoro-3-quinolyl)-3,4-dimethyl-3,4-dihydroisoquinoline] | 132 to 134
3 | C[C@@H]1N=C(c2cnc3c(F)cccc3c2)c2cccc(Cl)c2[C@H]1C (racemic) [E.13, rac-(3S,4R)-5-chloro-1-(8-fluoro-3-quinolyl)-3,4-dimethyl-3,4-dihydroisoquinoline] | 112 to 114
4 | Cc1ccc2c(c1Cl)[C@H](C)[C@H](C)N=C2c1cnc2c(F)cccc2c1 (racemic) [E.14, rac-(3S,4S)-5-chloro-1-(8-fluoro-3-quinolyl)-3,4,6-trimethyl-3,4-dihydroisoquinoline] | 84 to 86

Continued, values first:

Row | melting point [°C] | SMILES
5 | 140 to 142 | Cc1ccc2c(c1C#N)[C@H](C)[C@H](C)N=C2c1cnc2c(F)c(F)ccc2c1 (racemic) [E.06, rac-(3S,4S)-1-(7,8-difluoro-3-quinolyl)-3,4,6-trimethyl-3,4-dihydroisoquinoline-5-carbonitrile]
6 | 82 to 84 | Cc1ccc2c(c1Cl)[C@@H](C)[C@H](C)N=C2c1cnc2c(F)cccc2c1 (racemic) [E.09, rac-(3S,4R)-5-chloro-1-(8-fluoro-3-quinolyl)-3,4,6-trimethyl-3,4-dihydroisoquinoline]
7 | 100 to 102 | C[C@@H]1N=C(c2cnc3c(F)cccc3c2)c2cccc(Cl)c2[C@@H]1C (racemic) [E.15, rac-(3S,4S)-5-chloro-1-(8-fluoro-3-quinolyl)-3,4-dimethyl-3,4-dihydroisoquinoline]

Reference: patent US20240300917A1, “MICROBIOCIDAL QUINOLINE/QUINOXALINE ISOQUINOLINE DERIVATIVES” (SYNGENTA CROP PROTECTION AG, priority 2021, published 2024)
